For test [1], the system named is hormone refractory prostate cancer cell line CWR22Rv1. Description: MTS-PMS cellular proliferation assay. Format: cell-based. To be noted: at 5 μm, CWR22 MTS-PMS assay. As to the method: A 96-well U-bottomed plate (Becton Dickinson Labware, Franklin Lakes, N.J.) at a concentration of 5,000 cells per 50 microliters […] of media was incubated in 5% CO2 at 37° C. for 24 hours. Varying compound concentrations in […] of media were added to the media 24 hours later. Colorimetric readings were obtained using the MTS/PMS system and an ELISA plate reader, after 48 hours of exposure to DMAPT. The readings obtained for each concentration tested were from an average of eight wells. Each experiment was expressed as a percentage of the solvent control and completed at least three times with consistent results. The results presented are an average of three experiments. The hormone refractory prostate cancer cell line CWR22Rv1 was treated with increasing concentrations of parthenolide and DMAPT. for three hours Both parthenolide and DMAPT reduced cellular proliferation by 50% at 5 μm in the CWR22 MTS-PMS assay. Cellular proliferation was also measured in the MTS-PMS assay using four lung cancer cell lines treated with parthenolide and derivatives PIPT ((11S,11,13-dihydro,13-(piperidin-1-yl)parthenolide), 4MEPT (11S,11,13-dihydro,13-(4-methylpiperidin-1-yl)parthenolide) and MAPT (11S,11,13-dihydro,13-dimethylaminoparthenolide). Parthenolide and its derivatives inhibited cellular proliferation in a dose dependent manner between 2 and 10 μM with 70% inhibition at 10 μM in A549, 50% in H460, 40% in H-23 and 40% in H522 (FIGS. 2-5).

Test [2] deals with breast cancer cell line mdl-231. Put plainly: Clonogenic assay. Type of test: cell-based. The conditions noted are these: mdl-231, 2 μm concentration (parthenolide: similar dosage ranges).
Test [3] deals with breast cancer cell line hbl-100. Description: Clonogenic assay. Type of test: cell-based. To be noted: hbl-100, 2 μm concentration (parthenolide: similar dosage ranges).
Test [4] relates to AML cells (AML stem cell compartment). Put plainly: Human-mouse xenograft: NOD/SCID engraftment of AML cells treated in vitro. Type of test: in vivo, human cells in NOD/SCID mice. To be noted: 7.5 micromolar in vitro for 12-18 hours, bone marrow analysed after 6-8 weeks (CD45). As to the method: To assess the effect of parthenolide on primary human stem cell populations, experiments were conducted using transplantation into immune deficient NOD/SCID mice. […] For each experiment, cryopreserved mononuclear cell specimens from normal or AML donors were thawed, and treated in vitro with 7.5 micromolar parthenolide for 12-18 hours. Following culture, 5-10 million cells/animal were injected intravenously into sublethally irradiated (300 Rad) NOD/SCID mice. After 6-8 weeks, animals were sacrificed and bone marrow was analyzed for the presence of human cells using flow cytometry as previously described (Guzman et al., Proc Natl Acad Sci USA 2002; 99: 16220-162253). Human specific antibodies for CD45 were used to assess the level of total engraftment.
In general terms: Xenograft models place foreign cells or tissue in a host animal.

For test [5], the system named is breast cancer cell line 436. Put plainly: Clonogenic assay. Type of test: cell-based. The conditions noted are these: 436 cells, 2 μm concentration (parthenolide: similar dosage ranges).

For `C/C1=C\CC[C@@]2(C)O[C@@H]2[C@H]2OC(=O)[C@H](CN(C)C)[C@@H]2CC1` [DMAPT, 11S,11,13-Dihydro,13-dimethylaminoparthenolide], the “reduction of cellular proliferation” value in test [1] worked out at 50%. Moreover, the inhibition of proliferation entry in test [2], in test [3] and in test [5] was “almost complete inhibition” in each case. The “level of engraftment of treated AML cells in NOD/SCID mice” value in test [4] is on record as “strong reduction”.

The values are drawn from patent US9045490B2, “Use of parthenolide derivatives as antileukemic and cytotoxic agents” (University of Kentucky, priority 2003, dated 2015).
